Data as given in ChEMBL document CHEMBL5055668 (J Med Chem, 2021).
The source made the active and inactive calls. No cut-off for these calls is given here.

These compounds were tested against Macrophage colony-stimulating factor 1 receptor (Homo sapiens, UniProt P07333). Conditions: not given.
Sequence of Macrophage colony-stimulating factor 1 receptor (P07333 whole entry): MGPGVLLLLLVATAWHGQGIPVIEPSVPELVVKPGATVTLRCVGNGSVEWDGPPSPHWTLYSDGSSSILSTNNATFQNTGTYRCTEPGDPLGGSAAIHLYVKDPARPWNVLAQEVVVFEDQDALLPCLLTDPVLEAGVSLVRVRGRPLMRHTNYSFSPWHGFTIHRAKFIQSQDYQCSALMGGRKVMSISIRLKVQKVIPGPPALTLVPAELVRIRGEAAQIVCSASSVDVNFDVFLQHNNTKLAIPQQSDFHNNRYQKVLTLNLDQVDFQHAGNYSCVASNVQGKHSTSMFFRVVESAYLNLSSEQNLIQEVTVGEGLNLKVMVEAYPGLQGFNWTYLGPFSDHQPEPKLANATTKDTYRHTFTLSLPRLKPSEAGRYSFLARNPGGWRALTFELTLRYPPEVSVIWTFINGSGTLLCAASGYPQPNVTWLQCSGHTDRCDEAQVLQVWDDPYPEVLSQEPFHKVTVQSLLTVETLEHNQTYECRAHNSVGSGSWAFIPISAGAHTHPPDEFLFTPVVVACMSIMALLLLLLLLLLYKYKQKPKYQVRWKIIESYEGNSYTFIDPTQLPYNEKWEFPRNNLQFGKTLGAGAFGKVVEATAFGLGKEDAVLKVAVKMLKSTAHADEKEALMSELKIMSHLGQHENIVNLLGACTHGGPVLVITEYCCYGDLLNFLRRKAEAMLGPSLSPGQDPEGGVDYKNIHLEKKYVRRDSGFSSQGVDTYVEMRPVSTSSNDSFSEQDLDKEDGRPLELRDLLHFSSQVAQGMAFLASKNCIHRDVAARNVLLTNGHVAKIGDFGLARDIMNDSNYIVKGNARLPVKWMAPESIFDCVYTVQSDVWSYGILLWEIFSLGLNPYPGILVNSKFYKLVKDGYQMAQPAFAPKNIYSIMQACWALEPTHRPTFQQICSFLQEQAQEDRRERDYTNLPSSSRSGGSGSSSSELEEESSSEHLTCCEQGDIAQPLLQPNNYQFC

| IC50 | SMILES |
| --- | --- |
| > 3 µM | CCN(CC)CCNC(=O)c1c(C)[nH]c(/C=C2\C(=O)Nc3cc(NC(=O)NC4CCN(C)CC4)ccc32)c1C |

These compounds were tested on MC-38 (assay: Antitumor activity against mouse MC38 cells allografted in C57BL6 mouse assessed as tumor growth inhibition at 20 mg/kg, po administered daily for 2 weeks by caliper method). Conditions: MC-38, po, 336 h, read-out: TGI.

| SMILES | inhibition in vivo at 20 mg/kg |
| --- | --- |
| FC(F)(F)c1ccc(CNc2ccc(Cc3c[nH]c4ncc(Cl)cc34)cn2)cn1 [PEXIDARTINIB] | 40.3% |

What follows are compounds tested against T1, Macrophage colony-stimulating factor 1 receptor (Mus musculus) (UniProt P09581) (assay: Inhibition of CSF-1R signaling pathway in C57BL/6 mouse BMDM cells assessed as reduction in M-CSF induced CSF-1R phosphorylation at 100 nM preincubated for 12 hrs followed by M-CSF stimulation for 30 mins by Western blot analysis). Conditions: not given.
T1 sequence (whole entry): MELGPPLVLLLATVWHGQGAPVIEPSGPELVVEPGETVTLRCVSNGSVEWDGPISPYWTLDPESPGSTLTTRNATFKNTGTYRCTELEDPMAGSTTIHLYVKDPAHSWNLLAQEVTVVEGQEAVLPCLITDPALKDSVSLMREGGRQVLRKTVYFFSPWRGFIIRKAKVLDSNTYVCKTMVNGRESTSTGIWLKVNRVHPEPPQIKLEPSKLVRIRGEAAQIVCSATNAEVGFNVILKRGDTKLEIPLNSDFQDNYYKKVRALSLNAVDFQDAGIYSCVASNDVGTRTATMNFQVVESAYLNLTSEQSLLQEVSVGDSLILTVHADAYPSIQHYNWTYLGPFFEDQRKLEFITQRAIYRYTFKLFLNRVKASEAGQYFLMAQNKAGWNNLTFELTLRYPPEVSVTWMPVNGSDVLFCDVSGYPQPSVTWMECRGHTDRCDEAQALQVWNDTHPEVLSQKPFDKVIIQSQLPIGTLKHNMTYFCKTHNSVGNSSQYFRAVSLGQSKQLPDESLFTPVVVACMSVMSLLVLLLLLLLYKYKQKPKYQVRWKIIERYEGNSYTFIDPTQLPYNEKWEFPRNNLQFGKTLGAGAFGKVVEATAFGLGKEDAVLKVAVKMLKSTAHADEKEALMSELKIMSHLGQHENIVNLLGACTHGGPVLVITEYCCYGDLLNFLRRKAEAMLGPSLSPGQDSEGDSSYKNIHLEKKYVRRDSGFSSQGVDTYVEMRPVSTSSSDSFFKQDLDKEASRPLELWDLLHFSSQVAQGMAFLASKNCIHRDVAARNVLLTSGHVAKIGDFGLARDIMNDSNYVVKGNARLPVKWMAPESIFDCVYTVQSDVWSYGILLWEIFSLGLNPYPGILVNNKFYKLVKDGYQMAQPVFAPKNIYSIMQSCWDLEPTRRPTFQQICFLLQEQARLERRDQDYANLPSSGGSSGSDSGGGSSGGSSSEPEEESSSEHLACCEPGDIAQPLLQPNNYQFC
Type: cell-based

| SMILES | inhibition |
| --- | --- |
| FC(F)(F)c1ccc(CNc2ccc(Cc3c[nH]c4ncc(Cl)cc34)cn2)cn1 [PEXIDARTINIB] | Active |
| Cc1[nH]c(/C=C2\C(=O)Nc3cc(NC(=O)Nc4cc(C(C)(C)C)on4)ccc32)c(C)c1NC(=O)C1CCCNC1 (configuration not stated) | Active |
| Cc1[nH]c(/C=C2\C(=O)Nc3cc(NC(=O)Nc4cc(C(C)(C)C)on4)ccc32)c(C)c1NC(=O)C1CCCCN1 (configuration not stated) | Active |
| Cc1[nH]c(/C=C2\C(=O)Nc3cc(NC(=O)Nc4cc(C(C)(C)C)on4)ccc32)c(C)c1NC(=O)[C@@H]1CCNC1 | Active |

Continued, values first:

| inhibition | SMILES |
| --- | --- |
| Active | CCNCCC(=O)Nc1c(C)[nH]c(/C=C2\C(=O)Nc3cc(NC(=O)Nc4cc(C(C)(C)C)on4)ccc32)c1C |
| Active | Cc1[nH]c(/C=C2\C(=O)Nc3cc(NC(=O)Nc4cc(C(C)(C)C)on4)ccc32)c(C)c1NC(=O)CCN(C)C |
| Active | Cc1[nH]c(/C=C2\C(=O)Nc3cc(NC(=O)Nc4cc(C(C)(C)C)on4)ccc32)c(C)c1NC(=O)CCN1CCCCC1 |
| Active | Cc1[nH]c(/C=C2\C(=O)Nc3cc(NC(=O)Nc4cc(C(C)(C)C)on4)ccc32)c(C)c1NC(=O)CCN1CCN(C)CC1 |
| Active | Cc1[nH]c(/C=C2\C(=O)Nc3cc(NC(=O)Nc4cc(C(C)(C)C)on4)ccc32)c(C)c1NC(=O)CCN1CCCC1 |
| Active | CCCNCCC(=O)Nc1c(C)[nH]c(/C=C2\C(=O)Nc3cc(NC(=O)Nc4cc(C(C)(C)C)on4)ccc32)c1C |
